{"source": "patent US10513694B2", "about": "“Thienopyrrole compounds and uses thereof” (PROMEGA CORPORATION, priority 2015, dated 2019)", "key": {"[1]": {"biological_target": "T1, purified Nluc (extracellular); Nluc-HALOTAG fusion protein (intracellular) (Oplophorus gracilirostris, UniProt Q9GV45, A31E/A60N/A81I/F95D/I117V/K70R/L54V/L99Q/M102K/N193R/P142E/Q151K/Q38R/Q45L/V71I/Y165I)", "T1 construct": "expressed in transfected cells; host or cells: HEK293 (Nluc-HaloTag); purified Nluc added from outside", "T1 sequence (Q9GV45 28-196 with tags or gaps with the stated changes limits assumed)": "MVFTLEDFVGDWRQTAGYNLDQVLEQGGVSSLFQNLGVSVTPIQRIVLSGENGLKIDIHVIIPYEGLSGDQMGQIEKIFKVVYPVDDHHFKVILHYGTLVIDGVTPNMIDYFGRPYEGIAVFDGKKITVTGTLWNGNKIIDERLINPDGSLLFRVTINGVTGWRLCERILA", "test": "Inhibition of extracellular luciferase activity and enhancement of intracellular BRET", "assay_type": "cell-based", "settings": "HEK293 Nluc-HALOTAG + NANOBRET 618; 10 ng/mL extracellular purified Nluc; 2 hrs", "procedure": "HEK293 were transiently transfected with Nluc-HALOTAG fusion protein to orient Nluc-HALOTAG inside the cell. 24 hrs post-transfection, cells were labeled with NANOBRET 618 ligand to simulate specific intracellular BRET. Cells were then treated 10 ng/mL purified Nluc to simulate spurious extracellular luminescence. Cells were exposed to a compound response curve of the thienopyrrole compounds, JRW-0013, JRW-0051, JRW-0147, and JRW-0187, for 2 hrs. 10 μM furimazine was added, and the BRET ratio 610/450 nm was measured."}, "[2]": {"system": "Nluc-HALOTAG labeled with NANOBRET 618 ligand", "test": "Inhibition of extracellular BRET", "assay_type": "cell-based", "settings": "HEK293 Nluc-HDAC6; 10 ng/mL extracellular Nluc-HALOTAG/NANOBRET 618; 2 hrs", "procedure": "HEK293 were transiently transfected with an Nluc-HDAC6 fusion protein to orient Nluc-HDAC6 inside the cell. 24 hrs post-transfection, cells were treated 10 ng/mL purified Nluc-HALOTAG labeled with NANOBRET 618 ligand to simulate spurious extracellular BRET. Cells were then exposed to a compound response curve of the thienopyrrole compounds, JRW-0013, JRW-0051, JRW-0147, and JRW-0187, for 2 hrs. 10 μM furimazine was then added, and BRET ratio 610/450 nm was measured."}, "[3]": {"system": "Beta-2 Adrenergic Receptor-Nluc (B2AR-Nluc) fusion protein", "test": "Cell permeability, B2AR-Nluc in HEK293 or HeLa cells -/+ digitonin", "assay_type": "cell-based", "procedure": "HEK293 or HeLa cells were transiently transfected with Beta-2 Adrenergic Receptor-Nluc (B2AR-Nluc) fusion protein to anchor and orient Nluc cytosolically. 24 hrs post-transfection, cells were treated with −/+50 μg/mL digitonin to emulate a live and lytic scenario, respectively. Then, intact cells and permeabilized cells were exposed to a compound response curve of thienopyrrole compound up to 2 hrs. 10 μM furimazine (Promega Corp.) was added, and luminescence was measured. If a thienopyrrole compound (inhibitor) was permeable, the dose-response curves for both live and permeabilized cells overlapped. However, if a thienopyrrole compound was impermeable, the EC50 was right-shifted in the live cells relative to the permeabilized cells."}, "HEK293 cells": {"system": "HEK293 cells", "test": "Cell viability and toxicity (CellTiter-Glo)", "assay_type": "cell-based", "settings": "at concentrations greater than 2 μg/mL", "procedure": "HEK293 cells were plated at 20 k cells/well and exposed to vehicle (DMSO), digitonin (positive control for cell death), or JRW-0344 for 10 min/30 min/120 min/240 min/or 18 hrs. CellTiter-Glo (Promega Corp.) was added, and luminescence measured."}, "NANOLUC® enzyme": {"biological_target": "NANOLUC® enzyme (Oplophorus gracilirostris, UniProt Q9GV45, A31E/A60N/A81I/F95D/I117V/K70R/L54V/L99Q/M102K/N193R/P142E/Q151K/Q38R/Q45L/V71I/Y165I)", "sequence (Q9GV45 28-196 with tags or gaps with the stated changes limits assumed)": "as above", "test": "Inhibitor IC50 determination (NANOLUC enzyme, furimazine)", "assay_type": "biochemical", "settings": "IC50 (uM), 0.4 ng/ml NANOLUC enzyme, final furimazine 10 uM (at Km)"}, "[4]": {"system": "B2AR-Nluc or Nluc-B2AR fusion protein", "test": "Cell permeability with bioluminescent imaging (HeLa, B2AR-Nluc / Nluc-B2AR)", "assay_type": "cell-based", "settings": "30 μM compound, 10 μM furimazine", "procedure": "HeLa cells were transiently transfected with Beta-2 Adrenergic Receptor-Nluc (B2AR-Nluc; C-Terminus Nluc) or Nluc-Beta-2 Adrenergic Receptor (Nluc-B2AR; N-terminus Nluc) fusion protein to anchor and orient Nluc intracellularly or extracellularly, respectively. 24 hrs post-transfection, cells were treated with −/+30 μM of a thienopyrrole compound, JRW-0147, JRW-0051, and JRW-0138. 10 μM furimazine was added, and luminescence was detected by imaging on the Olympus LV200."}, "Nluc": {"biological_target": "Nluc (Oplophorus gracilirostris, UniProt Q9GV45, A31E/A60N/A81I/F95D/I117V/K70R/L54V/L99Q/M102K/N193R/P142E/Q151K/Q38R/Q45L/V71I/Y165I)", "sequence (Q9GV45 28-196 with tags or gaps with the stated changes limits assumed)": "as above", "test": "Multiplex RealTime-Glo / Caspase-Glo 3/7 in MCF7 cells", "assay_type": "cell-based", "design": "purchased Promega Corporation", "procedure": "(§1) A) In a Corning 3570 assay plate, MCF7 cells were plated at 1,000 cells/well in 20 μL of cell culture media (EMEM supplemented with 0.01 mg/mL human recombinant insulin and 10% fetal bovine serum) and incubated in overnight. 10 μL of 4× REALTIME-GLO™ MT Cell Viability reagents (Promega Corporation) in media or 10 μL media only was added to the cells. 10 μL of 40 μM staurosporine in media or 10 μL media only (control) was added to the cells. The cells were incubated, and caspase activation monitored at 5.5 hrs post-reagent addition. To monitor caspase activation, 40 μL CASPASE-GLO® 3/7 Assay Reagent (Promega Corporation), either on its own (Caspase) or with 200 μM of JRW-0004, JRW-0013, or JRW-0042, was added. Reactions were incubated at RT, and luminescence was measured at 1 hr 10 min post-reagent addition on Tecan M1000 Pro plate reader.\n(§2) When comparing the signal generated from the CASPASE-GLO® reagent in media only versus the signal generated in media containing REALTIME-GLO™ reagent, the signal is higher in the multiplex reaction."}, "Nluc enzyme": {"system": "Nluc enzyme", "test": "Multiplex RealTime-Glo / Caspase-Glo 3/7 in MCF7 cells", "assay_type": "cell-based", "procedure": "as §1, §2"}, "[5]": {"system": "firefly luciferase, e.g., ULTRAGLO® luciferase", "test": "Specificity of inhibition: firefly luciferase activity", "assay_type": "biochemical", "settings": "1 μM luciferin in Luciferase Detection Reagent; RT 2 hrs", "procedure": "The following example describes the specificity of disclosed thienopyrrole compounds, JRW-0004, JRW-0013, JRW-0006, JRW-0042, JRW-0138, and JRW-0147, to inhibit Nluc luciferase activity versus firefly luciferase activity, e.g., ULTRAGLO® luciferase. In a Corning 3570 assay plate, a solution containing 1 μM luciferin in Luciferase Detection Reagent (Promega Corporation V865/859) was added to the assay wells. An equal volume of titrations the thienopyrrole compounds, JRW-0004, JRW-0013, JRW-0006, JRW-0042, JRW-0138, and JRW-0147 were then added to the wells. The reactions were incubated at RT for 2 hrs, and luminescence was measured on Tecan M1000 Pro plate reader."}, "purified Nluc enzyme": {"biological_target": "T2, purified Nluc enzyme (Oplophorus gracilirostris, UniProt Q9GV45, A31E/A60N/A81I/F95D/I117V/K70R/L54V/L99Q/M102K/N193R/P142E/Q151K/Q38R/Q45L/V71I/Y165I)", "T2 construct": "purchased Promega Corporation", "T2 sequence (Q9GV45 28-196 with tags or gaps with the stated changes limits assumed)": "as above", "assay_type": "biochemical", "settings": "titration up to 100 μM final; RT 2 hrs; pro-substrate PBI-4442 + DTT", "procedure": "In a Corning 3570 assay plate, purified Nluc enzyme (Promega Corporation), 20 mM DTT, and an Nluc pro-substrate (PBI-4442, which is described in US Patent Publication No. 2013/0130289), which is converted to an Nluc substrate upon reduction with DTT, was added. Compound titrations of JRW-0004, JRW-0013, JRW-0006, JRW-0042, JRW-0138, and JRW-0147 were then made (1:2 serial dilution in PBS, 11 points plus no inhibitor control, starting at 200 μM; 100 μM final concentration in reaction). Compound titrations were added in equal volume to the wells of the assay plate. The reactions were incubated at RT for 2 hrs, and luminescence was measured on Tecan M1000 Pro plate reader. Half-maximal inhibitor (thienopyrrole compound) concentrations (IC50s) were determined using GraphPad Prism 6.03."}, "[6]": {"settings": "10 μM Stauro vs Control, 200 μM compound"}, "[7]": {"settings": "CASPASE-GLO 3/7 reagent with 200 μM compound, 1 hr 10 min"}}, "note": "Entries after “also recorded” stand apart in the source; their conditions may differ."}
{"smiles": "CCN(C(=O)Cn1c(C(=O)N[C@H]2CC[C@H](C(=O)N3CCC(C(=O)O)CC3)CC2)cc2sccc21)c1cccc(C)c1", "note": "[JRW-0187, 1-(trans-4-(4-(2-(ethyl(m-tolyl)amino)-2-oxoethyl)-4H-thieno[3,2-b]pyrrole-5-carboxamido)cyclohexane-1-carbonyl)piperidine-4-carboxylic acid]", "values": [{"measurement": "BRET ratio 610/450 nm across compound dose-response curve (FIGS. 13B-13E)", "setting": "[1]", "result": "intracellular BRET ratio was enhanced"}, {"measurement": "BRET ratio 610/450 nm across compound dose-response curve (FIGS. 12B-12E)", "setting": "[2]", "result": "BRET ratio decreased"}, {"measurement": "Cell permeability", "setting": "[3]", "result": "cell-impermeable"}]}
{"smiles": "C[C@@H]1CC[C@@]2(OC1)O[C@H]1[C@@H](O)[C@H]3[C@@H]4CC[C@H]5C[C@@H](O[C@@H]6O[C@H](CO)[C@H](O[C@@H]7O[C@H](CO)[C@@H](O)[C@H](O[C@@H]8OC[C@@H](O)[C@H](O)[C@H]8O)[C@H]7O[C@@H]7O[C@H](CO)[C@H](O)[C@H](O[C@@H]8O[C@H](CO)[C@@H](O)[C@H](O)[C@H]8O)[C@H]7O)[C@H](O)[C@H]6O)[C@H](O)C[C@]5(C)[C@H]4CC[C@]3(C)[C@H]1[C@@H]2C", "note": "[Digitonin, reference compound]", "values": [{"measurement": "Cell death (FIG. 18B)", "setting": "HEK293 cells", "result": "almost complete death"}]}
{"smiles": "CCN(C(=O)Cn1c(C(=O)N[C@H]2CC[C@H](C(=O)NCCCC(=O)O)CC2)cc2sccc21)c1cccc(C)c1", "note": "[JRW-0051, 4-(trans-4-(4-(2-(ethyl(m-tolyl)amino)-2-oxoethyl)-4H-thieno[3,2-b]pyrrole-5-carboxamido)cyclohexane-1-carboxamido)butanoic acid]", "values": [{"measurement": "BRET ratio 610/450 nm across compound dose-response curve (FIGS. 13B-13E)", "setting": "[1]", "result": "intracellular BRET ratio was enhanced"}, {"measurement": "BRET ratio 610/450 nm across compound dose-response curve (FIGS. 12B-12E)", "setting": "[2]", "result": "BRET ratio decreased"}, {"measurement": "IC50", "setting": "NANOLUC® enzyme", "result": 0.74, "unit": "µM"}, {"measurement": "Permeability and inhibition of extracellular / intracellular Nluc by imaging (FIG. 14)", "setting": "[4]", "result": "impermeable and inhibited extracellular Nluc and enhanced intracellular Nluc"}, {"measurement": "Cell permeability", "setting": "[3]", "result": "cell-impermeable"}]}
{"smiles": "CCCCNC(=O)[C@H]1CC[C@H](NC(=O)c2cc3sccc3n2CC(=O)N(CC)c2cccc(C)c2)CC1", "note": "[JRW-0042, N-(trans-4-(butylcarbamoyl)cyclohexyl)-4-(2-(ethyl(m-tolyl)amino)-2-oxoethyl)-4H-thieno[3,2-b]pyrrole-5-carboxamide]", "values": [{"measurement": "Fold Cont, Media containing RealTime-Glo", "setting": "Nluc; [6]", "result": 5.05}, {"measurement": "Avg (luminescence), Media containing RealTime-Glo, 10 μM Stauro", "setting": "Nluc; [7]", "result": 53956}, {"measurement": "Avg (luminescence), Media containing RealTime-Glo, Control", "setting": "Nluc; [7]", "result": 10679}, {"measurement": "Fold Cont, Media only", "setting": "Nluc enzyme; [6]", "result": 5.81}, {"measurement": "Avg (luminescence), Media only, 10 μM Stauro", "setting": "Nluc enzyme; [7]", "result": 62280}, {"measurement": "Avg (luminescence), Media only, Control", "setting": "Nluc enzyme; [7]", "result": 10718}, {"measurement": "Inhibition of firefly luciferase activity (FIG. 3)", "setting": "[5]", "result": "do not inhibit firefly luciferase activity; also recorded: did not inhibit the firefly luciferase activity"}, {"measurement": "IC50", "setting": "NANOLUC® enzyme", "result": 0.31, "unit": "µM"}, {"measurement": "Inhibition of purified Nluc enzyme (FIG. 2)", "setting": "purified Nluc enzyme", "result": "capable of inhibiting purified Nluc enzyme"}]}
{"smiles": "CCCCCCNC(=O)[C@H]1CC[C@H](NC(=O)c2cc3sccc3n2CC(=O)N(CC)c2cccc(C)c2)CC1", "note": "[JRW-0138, 4-(2-(ethyl(m-tolyl)amino)-2-oxoethyl)-N-(trans-4-(hexylcarbamoyl)cyclohexyl)-4H-thieno[3,2-b]pyrrole-5-carboxamide]", "values": [{"measurement": "Inhibition of firefly luciferase activity (FIG. 3)", "setting": "[5]", "result": "do not inhibit firefly luciferase activity; also recorded: did not inhibit the firefly luciferase activity"}, {"measurement": "IC50", "setting": "NANOLUC® enzyme", "result": 0.13, "unit": "µM"}, {"measurement": "Permeability and inhibition of extracellular / intracellular Nluc by imaging (FIG. 14)", "setting": "[4]", "result": "cell permeable and inhibited both intracellular and extracellular Nluc"}, {"measurement": "Cell permeability", "setting": "[3]", "result": "cell-permeable"}, {"measurement": "Inhibition of purified Nluc enzyme (FIG. 2)", "setting": "purified Nluc enzyme", "result": "capable of inhibiting purified Nluc enzyme"}]}
